Data taken from publication PMC9942557, “Bolaamphiphile Analogues of 12-bis-THA Cl2 Are Potent Antimicrobial Therapeutics with Distinct Mechanisms of Action against Bacterial, Mycobacterial, and Fungal Pathogens” (mSphere, 2022).

Experiments:
P. aeruginosa PAO1 = test: Fluorescence microscopy, penetration of bolalipid; type: cell-based, Pseudomonas aeruginosa; conditions: 180 μM
Experimental: P. aeruginosa PAO1 was incubated with CM2 alone or in combination with tobramycin. A single colony of bacteria was collected from a Luria-Bertani (LB) agar plate and resuspended in 10 mL of LB broth overnight at 37°C, with shaking at 150 rpm. The following morning, a 2% (vol/vol) dilution was done in fresh LB broth, and the bacteria suspension was grown at 37°C with shaking at 150 rpm until it reached an OD600 of 0.3. The surface of microscopy SuperFrost glass slides (Thermo Fisher Scientific, Massachusetts, USA) was marked with a PAP pen, in order to design two square confined areas per glass slide, where the bacteria were deposited. One hundred microliters of bacterial suspension was transferred into sterile Eppendorf tubes and incubated with equal volumes of bolalipid suspension for 1 h. The bolalipid final concentration was 0.18 mM. The fluorescent Alexa Fluor 555 conjugate of wheat germ agglutinin (WGA) (Thermo Fisher Scientific) lectin membrane dye (10 μg/mL final concentration) was added to the suspension, and the bacteria were incubated for 45 min more. At the end of incubation, 100 μL was spotted in each half of the SuperFrost glass slides and incubated for 45 min more. Glass slides were then washed three times with phosphate-buffered saline (PBS) and left to dry for 5 min before addition of one drop of Fluoromount (Sigma-Aldrich, Germany) aqueous mounting medium. […]

G. vaginalis KC1 = test: Anaerobic broth microdilution MIC (BHI, 5% horse serum); type: cell-based, Gardnerella vaginalis; conditions: Gardnerella vaginalis, read-out: MIC
G. vaginalis KC3 = test: as above; type: cell-based, Gardnerella vaginalis; conditions: Gardnerella vaginalis, read-out: MIC
[1] = test system: Prevotella bivia NCTC 11156; test: as above; type: cell-based; conditions: NCTC11156, read-out: MIC
G. vaginalis NCTC 10287 = test: as above; type: cell-based, Gardnerella vaginalis; conditions: Gardnerella vaginalis, NCTC10287, read-out: MIC
G. vaginalis KC2 = test: as above; type: cell-based, Gardnerella vaginalis; conditions: Gardnerella vaginalis, read-out: MIC
[2] = test system: Pseudomonas aeruginosa RP73; test: In vitro pharmacodynamic (PD) assay; conditions: P. aeruginosa RP73; combination 2:1 (wt/wt)
Experimental: In vitro PD assays were performed with Pseudomonas aeruginosa RP73 cultured in Roswell Park Memorial Institute 1640 medium (RPMI) supplemented with 5% Mueller-Hinton broth (MHB) ([35]). Bacteria were cultured overnight in 10 mL of RPMI–5% MHB at 37°C and diluted just prior to plate inoculation to an OD600 of 0.002. Stock solutions of colistin or tobramycin were prepared in sterile MilliQ water at a concentration of 200× MIC. Octa-bola was prepared in methanol at 2,000× MIC and diluted in water to 200× MIC. A dilution series was made in the top row of a polypropylene 96-well plate from 200× MIC to 0.2× MIC in a volume of 100 μL, to which 100 μL of the bacterial suspension was added to have a total of 1 × 10^6 log-phase CFU in 200 μL. The first time zero sample was taken <30 s after addition of bacteria to the plate, with further samples taken at appropriate intervals thereafter. […] Fifteen microliters was removed from each well, diluted 1:1,000 in phosphate-buffered saline, and plated onto RPMI–5% MH agar plates. The plates were incubated at 37°C overnight for CFU counting.
CFU data were log10 transformed, and the bacterial net growth rate was determined from the increase or decrease in CFU during the time of exposure to the antibiotics as the coefficient of a linear regression of log10 CFU as a function of time. The intercept of the regression was fixed by forcing the regression lines through the first CFU measurement (0 min) at a given antimicrobial concentration. The pharmacodynamic function according to Regoes et al. ([36]) describes the relationship between bacterial net growth rate (ψ) and the concentration of an antimicrobial (a): ψmax − ([ψmax − ψmin][a/zMIC])^κ/([a/zMIC]^κ − [ψmin/ψmax]). Fitting this function to the net bacterial growth rates in OriginPro 2020 (OriginLab Corporation, Northampton, MA) generates the parameters ψmin and ψmax (minimum and maximum growth rates, respectively), zMIC (the pharmacodynamic MIC), and κ (a measure of the cooperativity). […]

Candida auris TGD1912 [3] = test: Fluorescence microscopy, accumulation of bolalipid; type: cell-based; conditions: 0.18 mM (approximately 54× the MIC), 30 min
Experimental: Candida auris cells were picked from a yeast extract-peptone-dextrose (YPD) agar plate and resuspended in 35 mL of sterile distilled water (dH2O). After resuspension, 150 μL of cells was inoculated in 100 mL of YPD broth overnight at 30°C with shaking at 130 rpm and grown to exponential phase (5 × 10^6 to 5 × 10^7 cells/mL). Cells (6 × 10^8) were washed in standard defined (SD) medium twice (pelleted at 1,500 × g for 5 min and resuspended in 10 mL SD medium [yeast nitrogen base without the amino acids D-glucose, methionine, adenine, histidine, tryptophan, uracil, leucine, and lysine]), followed by resuspension in 1 mL SD medium containing 0.18 mM Penta-bola, and incubated at 37°C for 30 min. After treatment with the Penta-bola, cells were pelleted and resuspended in Hanks’ balanced salt solution (HBSS) and 50 μg/mL CF594 concanavalin A (Biotium). After incubation at 37°C for 30 min, cells were washed once with HBSS and resuspended in 1 mL of HBSS. Polysine adhesion slides (Thermo Scientific) were prepared by spreading 20 μL of treated cells and allowing them to dry for 30 min before adding one drop of Fluoromount (Sigma-Aldrich, Germany) aqueous mounting medium. Fluorescence images were acquired using a Leica fluorescence microscope at ×100 magnification. […]

Candida auris TGD1912 [4] = test: MIC; type: cell-based

## Nc1c2c([n+](CCCCCCCCCCCC[n+]3c4c(c(N)c5ccccc53)CCCC4)c3ccccc13)CCCC2 [12-bis-THA Cl2, 12,12′-(Dodecane-1,12-diyl)-bis-(9-amino-1,2,3,4-tetrahydroacridinium) chloride]
P. aeruginosa PAO1
  bacterial integrity / accumulation of bolalipid: the bacteria appeared intact and the bolalipid was concentrated within the cells

## Cc1cc(N)c2ccccc2[n+]1CCCCCCCCCC[n+]1c(C)cc(N)c2ccccc21 [Dequalinium, dequalinium chloride, reference compound]
G. vaginalis KC1
  MIC: 2 µg/mL
G. vaginalis KC3
  MIC: 2 to 4 µg/mL
[1]
  MIC: 2 µg/mL
G. vaginalis NCTC 10287
  MIC: 2 µg/mL
G. vaginalis KC2
  MIC: 4 µg/mL

## Nc1c2c([n+](CCCCCCCCCCCC[n+]3c4c(c(N)c5ccccc53)CCCCCC4)c3ccccc13)CCCCCC2 [Octa-bola]
[2]
  bactericidal activity (minimum growth rate, ψmin): strongly bactericidal, albeit only at the highest concentration tested

## Nc1c2c([n+](CCCCCCCCCCCC[n+]3c4c(c(N)c5ccccc53)CCC4)c3ccccc13)CCC2 [Penta-bola]
Candida auris TGD1912 [3]
  cell integrity / accumulation of bolalipid: the cells remained intact
Candida auris TGD1912 [4]
  MIC: 2 µg/mL
